Tested on: 596521-263-R-J1-PDC complex spheroids, viability % of control
Test: Anticancer human tumor 596521-263-R-J1-PDC patient-derived soft tissue sarcoma cell line growth inhibition [GQUAD]
Details: for IC50: curve of first compound; for viability, T/C: stronger effect = lower value
Procedure, shortened: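 Multi-cell-type spheroids of tumor cells with HUVEC and mesenchymal stem cells, treated with drug combinations. Concentrations descend in half-log steps from near clinical Cmax, or from 10 microM where Cmax is unknown; viability read-out.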

[1] = second compound 0.0316 µM, first compound 0.0316 µM
[2] = second compound 0.0316 µM, first compound 0.1 µM
[3] = second compound 0.0316 µM, first compound 0.316 µM
[4] = second compound 0.0316 µM, first compound 1 µM
[5] = second compound 0.0316 µM, first compound 3.16 µM
[6] = second compound 0.0316 µM, first compound 10 µM
[7] = second compound 0.1 µM, first compound 0.0316 µM
[8] = second compound 0.1 µM, first compound 0.1 µM
[9] = second compound 0.1 µM, first compound 0.316 µM
[10] = second compound 0.1 µM, first compound 1 µM
[11] = second compound 0.1 µM, first compound 3.16 µM
[12] = second compound 0.1 µM, first compound 10 µM
[13] = second compound 0.316 µM, first compound 0.0316 µM
[14] = second compound 0.316 µM, first compound 0.1 µM
[15] = second compound 0.316 µM, first compound 0.316 µM
[16] = second compound 0.316 µM, first compound 1 µM
[17] = second compound 0.316 µM, first compound 3.16 µM
[18] = second compound 0.316 µM, first compound 10 µM
[19] = second compound 1 µM, first compound 0.0316 µM
[20] = second compound 1 µM, first compound 0.1 µM
[21] = second compound 1 µM, first compound 0.316 µM
[22] = second compound 1 µM, first compound 1 µM
[23] = second compound 1 µM, first compound 3.16 µM
[24] = second compound 1 µM, first compound 10 µM
[25] = second compound 3.16 µM, first compound 0.0316 µM
[26] = second compound 3.16 µM, first compound 0.1 µM
[27] = second compound 3.16 µM, first compound 0.316 µM
[28] = second compound 3.16 µM, first compound 1 µM
[29] = second compound 3.16 µM, first compound 3.16 µM
[30] = second compound 3.16 µM, first compound 10 µM
[31] = second compound 10 µM, first compound 0.0316 µM
[32] = second compound 10 µM, first compound 0.1 µM
[33] = second compound 10 µM, first compound 0.316 µM
[34] = second compound 10 µM, first compound 1 µM
[35] = second compound 10 µM, first compound 3.16 µM
[36] = second compound 10 µM, first compound 10 µM
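Also: spheroids exposed to drugs for 7 days before viability reading.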
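For viability, T/C in this document: 100% = DMSO vehicle control viability.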

SMILES: O=C(c1cc(Cc2n[nH]c(=O)c3ccccc23)ccc1F)N1CCN(C(=O)C2CC2)CC1 + CN(C)c1ccc(Nc2c3ccc(NC(=O)CCN4CCCC4)cc3nc3cc(NC(=O)CCN4CCCC4)ccc23)cc1
- IC50 (second compound 0.0316 µM): > 10000 nM
- IC50 (second compound 0.1 µM): > 10000 nM
- IC50 (second compound 0.316 µM): > 10000 nM
- IC50 (second compound 1 µM): > 10000 nM
- IC50 (second compound 3.16 µM): > 10000 nM
- IC50 (second compound 10 µM): > 10000 nM
- viability, T/C [1]: 112%
- viability, T/C [2]: 106%
- viability, T/C [3]: 101%
- viability, T/C [4]: 104%
- viability, T/C [5]: 86.2%
- viability, T/C [6]: 68%
- viability, T/C [7]: 108%
- viability, T/C [8]: 89.3%
- viability, T/C [9]: 97.4%
- viability, T/C [10]: 99%
- viability, T/C [11]: 88.3%
- viability, T/C [12]: 67.9%
- viability, T/C [13]: 114%
- viability, T/C [14]: 103%
- viability, T/C [15]: 101%
- viability, T/C [16]: 103%
- viability, T/C [17]: 88.5%
- viability, T/C [18]: 74.3%
- viability, T/C [19]: 108%
- viability, T/C [20]: 98.2%
- viability, T/C [21]: 109%
- viability, T/C [22]: 99.2%
- viability, T/C [23]: 94.6%
- viability, T/C [24]: 69.2%
- viability, T/C [25]: 110%
- viability, T/C [26]: 89.6%
- viability, T/C [27]: 90.8%
- viability, T/C [28]: 89.9%
- viability, T/C [29]: 91%
- viability, T/C [30]: 70.8%
- viability, T/C [31]: 70.4%
- viability, T/C [32]: 62.2%
- viability, T/C [33]: 76.7%
- viability, T/C [34]: 72.4%
- viability, T/C [35]: 66.5%
- viability, T/C [36]: 59.9%

SMILES: CC1COCCN1c1cc(-c2ccnn2C)c2ccnc(-c3ccn[nH]3)c2n1 (centres undefined) + Cc1cnc(CNC(=O)c2c(=O)c3ccc(N4CCCN(C)CC4)nc3n3c2sc2ccccc23)cn1
- IC50 (second compound 0.0316 µM): 333 nM
- IC50 (second compound 0.1 µM): 367 nM
- IC50 (second compound 0.316 µM): 191 nM
- IC50 (second compound 1 µM): 62.4 nM
- IC50 (second compound 3.16 µM): 90.9 nM
- IC50 (second compound 10 µM): < 31.6 nM
- viability, T/C [1]: 55.9%
- viability, T/C [2]: 55.6%
- viability, T/C [3]: 48.3%
- viability, T/C [4]: 42.5%
- viability, T/C [5]: 27.4%
- viability, T/C [6]: 23.2%
- viability, T/C [7]: 53.1%
- viability, T/C [8]: 65.6%
- viability, T/C [9]: 47%
- viability, T/C [10]: 41.8%
- viability, T/C [11]: 29.7%
- viability, T/C [12]: 28.1%
- viability, T/C [13]: 57.4%
- viability, T/C [14]: 51.3%
- viability, T/C [15]: 49%
- viability, T/C [16]: 41.2%
- viability, T/C [17]: 33%
- viability, T/C [18]: 25.1%
- viability, T/C [19]: 52.2%
- viability, T/C [20]: 47.8%
- viability, T/C [21]: 42.9%
- viability, T/C [22]: 34%
- viability, T/C [23]: 26.8%
- viability, T/C [24]: 26.6%
- viability, T/C [25]: 49.8%
- viability, T/C [26]: 52.3%
- viability, T/C [27]: 45.3%
- viability, T/C [28]: 38%
- viability, T/C [29]: 29.4%
- viability, T/C [30]: 21.2%
- viability, T/C [31]: 39.7%
- viability, T/C [32]: 35%
- viability, T/C [33]: 33.3%
- viability, T/C [34]: 30.4%
- viability, T/C [35]: 25%
- viability, T/C [36]: 14.1%
